Assay results: US8362000B2, “Azetidinyl diamides as monoacylglycerol lipase inhibitors” (Janssen Pharmaceutica NV, priority 2009, dated 2013)
Numbering of substitutions follows the chain as printed. Where two headings read alike, the source gives them in different places.

What was measured:
mutant MGL = target: T1, mutant MGL (Homo sapiens, UniProt Q99685, L169S/L176S); assay: MGL ThermoFluor assay - mutant; assay type: binding
T1 sequence (Q99685 1-303 L169S/L176S): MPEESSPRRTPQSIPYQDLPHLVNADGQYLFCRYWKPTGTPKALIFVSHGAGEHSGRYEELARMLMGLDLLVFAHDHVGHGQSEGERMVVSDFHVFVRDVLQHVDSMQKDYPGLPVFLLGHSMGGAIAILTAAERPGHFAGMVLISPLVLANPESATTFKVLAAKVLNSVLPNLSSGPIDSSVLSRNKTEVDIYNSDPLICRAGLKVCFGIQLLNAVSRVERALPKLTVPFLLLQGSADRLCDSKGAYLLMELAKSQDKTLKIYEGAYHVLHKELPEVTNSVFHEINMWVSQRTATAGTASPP

[1] = target: T2, purified wild type MGL (wt-MGLL 6H-11-313) (Homo sapiens, UniProt Q99685)
T2 sequence (Q99685 1-303): T1 sequence (Q99685 1-303 L169S/L176S) with S169L, S176L

MGL = target: T3, MGL (Rattus norvegicus, UniProt Q8R431); assay: 2-AG accumulation assay in rat brain homogenate; assay type: biochemical; conditions: rat brain homogenate, 2-AG accumulation as percent of vehicle; for 2-AG accumulation, % of vehicle control at 1 µM: compound 1 μM, read-out: Rat Brain 2AG % VehCntrl (%) @ 1 μM; for 2-AG accumulation, % of vehicle control at 10 µM: compound 10 μM, read-out: Rat Brain 2AG % VehCntrl (%) @ 10 μM
T3 construct: one g rat brain was homogenized using a Polytron homogenizer; from tissue; host or cells: rat brain homogenate
T3 sequence (Q8R431 1-303): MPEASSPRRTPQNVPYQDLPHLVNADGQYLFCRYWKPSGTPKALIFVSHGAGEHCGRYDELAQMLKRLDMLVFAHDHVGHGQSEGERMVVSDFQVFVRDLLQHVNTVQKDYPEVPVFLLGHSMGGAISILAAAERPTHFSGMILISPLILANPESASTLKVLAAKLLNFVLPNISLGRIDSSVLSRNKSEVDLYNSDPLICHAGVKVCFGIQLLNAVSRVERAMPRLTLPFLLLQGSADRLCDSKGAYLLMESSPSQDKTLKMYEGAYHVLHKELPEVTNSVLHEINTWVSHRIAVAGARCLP

[2] = ThermoFluor thermal stability binding assay, read-out: MGL mutant ThermoFluor Kd
[3] = ThermoFluor concentration-response, read-out: MGL mutant ThermoFluor Kd
[4] = ThermoFluor, compound concentration measured by qNMR, read-out: MGL mutant ThermoFluor qKd (μM) (using qNMR conc.)
[5] = ThermoFluor, compound concentration measured by qNMR, read-out: MGL mutant ThermoFluor qKd (using qNMR conc.)

Row | Compound | Kd (mutant MGL; [2]) [µM] | IC50 [1] [nM] | 2-AG accumulation, % of vehicle control at 0.1 µM (MGL; compound 0.1 μM, read-out: Rat Brain 2AG % VehCntrl (%) @ 0.1 μM) [%] | 2-AG accumulation, % of vehicle control at 1 µM (MGL) [%] | 2-AG accumulation, % of vehicle control at 10 µM (MGL) [%] | Kd (mutant MGL; [3]) [µM] | Kd (mutant MGL; [4]) [µM] | Kd (mutant MGL; [5]) [µM]
1 | O=C(c1cscn1)N1CCN(C2CN(C(=O)c3ccc(-c4ccc(F)c(Cl)c4)cc3Cl)C2)CC1 [Cpd 265, 1-{1-[(3,3′-Dichloro-4′-fluorobiphenyl-4-yl)carbonyl]azetidin-3-yl}-4-(1,3-thiazol-4-ylcarbonyl)piperazine] | 0.0198 | 19 | 126 | 162 | 643 | – | – | –
2 | O=C(c1ccccc1)N1CCN(C2CN(C(=O)c3cc4cccc(C(F)(F)F)c4s3)C2)CC1 [Cpd 329, 1-(Phenylcarbonyl)-4-(1-{[7-(trifluoromethyl)-1-benzothiophen-2-yl]carbonyl}azetidin-3-yl)piperazine] | 0.0626 | 1220 | – | – | 520 | – | – | –
3 | O=C(c1ccccc1)N1CCN(C2CN(C(=O)c3cc4c(C(F)(F)F)cccc4s3)C2)CC1 [Cpd 330, 1-(Phenylcarbonyl)-4-(1-{[4-(trifluoromethyl)-1-benzothiophen-2-yl]carbonyl}azetidin-3-yl)piperazine] | 0.438 | 308 | – | 197 | – | – | – | –
4 | O=C(c1ccc2c(-c3ccccc3)cccc2c1)N1CC(N2CCN(C(=O)c3nccs3)CC2)C1 [Cpd 338, 1-{1-[(5-Phenylnaphthalen-2-yl)carbonyl]azetidin-3-3yl}-4-(1,3-thiazol-2-ylcarbonyl)piperazine] | 0.0011 | < 5 | – | – | 791 | – | – | –
5 | O=C(c1ccc2c(c1)CCCN2)N1CC(N2CCN(C(=O)c3nccs3)CC2)C1 [Cpd 357, 6-(3-[4-(1,3-Thiazol-2-ylcarbonyl)piperazin-1-yl]-azetidin-1-yl)carbonyl-1,2,3,4-tetrahydroquinoline] | 0.238 | 3750 | – | 152 | – | – | – | –
6 | O=C(c1ccccc1)N1CCN(C2CN(C(=O)c3ccc(Oc4cccc(C(F)(F)F)c4)cc3)C2)CC1 [Cpd 419, 1-(Phenylcarbonyl)-4-[1-({4-[3-(trifluoromethyl)phenoxy]phenyl}carbonyl)azetidin-3-yl]piperazine] | – | 170 | – | 109 | – | 0.123 | – | –
7 | O=C(c1ccc(Oc2cccc(C(F)(F)F)c2)cc1)N1CC(N2CCN(C(=O)c3nccs3)CC2)C1 [Cpd 424, 1-(1,3-Thiazol-2-ylcarbonyl)-4-[1-({4-[3-(trifluoromethyl)phenoxy]phenyl}carbonyl)azetidin-3-yl]piperazine] | – | < 5 | – | 436 | – | 0.00941 | – | –
8 | O=C(c1ccccc1)N1CCN(C2CN(C(=O)c3ccc(Sc4cccc(C(F)(F)F)c4)cc3)C2)CC1 [Cpd 430] | – | 23.6 | – | 114 | – | 0.0667 | – | –
9 | O=C(c1ccc(Sc2cccc(C(F)(F)F)c2)cc1)N1CC(N2CCN(C(=O)c3cscn3)CC2)C1 [Cpd 432] | – | < 5 | – | 321 | – | 0.025 | – | –
10 | Cc1c(-c2ccccc2)oc2c(C(=O)N3CC(N4CCN(C(=O)c5nccs5)CC4)C3)cccc2c1=O [Cpd 476] | – | 338 | – | – | 272 | 0.0667 | – | –
11 | Cc1c(C(=O)N2CC(N3CCN(C(=O)c4ccccc4)CC3)C2)sc2ccc(C(F)(F)F)cc12 [Cpd 504] | 0.024 | 10 | – | 178 | – | – | – | –
12 | Cc1c(C(=O)N2CC(N3CCN(C(=O)c4ccccc4)CC3)C2)sc2cc(C(F)(F)F)ccc12 [Cpd 505] | – | 39 | – | 236 | – | 0.01 | – | –
13 | O=C(c1ccccc1)N1CCN(C2CN(C(=O)c3sc4ccc(Cl)cc4c3C(F)(F)F)C2)CC1 [Cpd 506] | – | 48 | – | 132 | – | 0.059 | – | –
14 | O=C(c1ccccc1)N1CCN(C2CN(C(=O)c3ccc(Oc4ncc(C(F)(F)F)cc4Cl)cc3)C2)CC1 [Cpd 507] | – | 52 | – | 190 | – | 0.317 | – | –
15 | O=C(c1ccccc1)N1CCN(C2CN(C(=O)c3ccc(S(=O)(=O)c4cccc(C(F)(F)F)c4)cc3)C2)CC1 [Cpd 508] | – | 107 | – | 119 | – | 0.162 | – | –
16 | O=C(c1ccccc1)N1CCN(C2CN(C(=O)c3ccc(Cc4cccc(C(F)(F)F)c4)cc3)C2)CC1 [Cpd 547] | – | < 5 | – | 652 | – | 0.072 | – | –
17 | O=C(c1ccccc1)N1CCN(C2CN(C(=O)c3ccc4c(ccn4-c4cc(F)c(F)c(F)c4)c3)C2)CC1 [Cpd 569] | – | 21 | – | 198 | – | – | 0.059 | –

Row | Compound | Kd (mutant MGL; [2]) [µM] | IC50 [1] [nM] | 2-AG accumulation, % of vehicle control at 0.1 µM (MGL; compound 0.1 μM, read-out: Rat Brain 2AG % VehCntrl (%) @ 0.1 μM) [%] | 2-AG accumulation, % of vehicle control at 1 µM (MGL) [%] | 2-AG accumulation, % of vehicle control at 10 µM (MGL) [%] | Kd (mutant MGL; [3]) [µM] | Kd (mutant MGL; [4]) [µM] | Kd (mutant MGL; [5]) [µM]
18 | Cc1c(C(=O)N2CC(N3CCN(C(=O)c4ccccc4)CC3)C2)sc2ccc(-c3ccccc3)cc12 [Cpd 570, 1-{1-[(3-Methyl-5-phenyl-1-benzothiophen-2-yl)carbonyl]azetidin-3-yl}-4-(phenylcarbonyl)piperazine] | – | 22 | – | 210 | – | 0.03 | – | –
19 | O=C(c1ccccc1)N1CCN(C2CN(C(=O)c3ccc4c(ccn4-c4ccc(OC(F)(F)F)cc4)c3)C2)CC1 [Cpd 573] | – | 46 | – | 277 | – | – | 0.1 | –
20 | Cc1cn(-c2ccccc2)c2ccc(C(=O)N3CC(N4CCN(C(=O)c5ccccc5)CC4)C3)cc12 [Cpd 577] | – | 52 | – | 207 | – | – | 0.026 | –
21 | O=C(c1ccccc1)N1CCN(C2CN(C(=O)c3ccc4c(ccn4-c4cc(F)cc(F)c4)c3)C2)CC1 [Cpd 580] | – | 69 | – | 179 | – | – | 0.118 | –
22 | O=C(c1ccccc1)N1CCN(C2CN(C(=O)c3ccc4c(-c5ccc(C(F)(F)F)cc5)c[nH]c4c3)C2)CC1 [Cpd 634] | – | 57 | – | 301 | – | 0.054 | – | –
23 | CCCCCCCCCCCCCCCC(=O)N1CC(N2CCN(C(=O)c3nccs3)CC2)C1 [Cpd 636] | – | 21 | – | 296 | – | 0.119 | – | –
24 | O=C(c1nccs1)N1CCN(C2CN(C(=O)C3CCC(c4ccc(Cl)cc4)CC3)C2)CC1 (stereo not drawn) [Cpd 637] | – | 41 | – | 272 | – | 0.053 | – | –
25 | CCCCCCCC/C=C\CCCCCCCC(=O)N1CC(N2CCN(C(=O)c3nccs3)CC2)C1 [Cpd 641] | – | < 5 | – | 397 | – | 0.118 | – | 0.136
26 | O=C(c1ccc(S(=O)(=O)c2cccc(C(F)(F)F)c2)cc1)N1CC(N2CCN(C(=O)c3nccs3)CC2)C1 [Cpd 651] | – | 7 | – | 258 | – | 0.025 | – | –
27 | O=C(c1ccc2c(c1)Sc1ccccc1O2)N1CC(N2CCN(C(=O)c3cscn3)CC2)C1 [Cpd 654] | 0.04 | 7 | – | 389 | – | – | – | –
28 | CCCc1ccc(C(=O)N2CC(N3CCN(C(=O)c4nccs4)CC3)C2)cc1 [Cpd 655] | – | 8 | – | 359 | – | 0.029 | – | –
29 | CCCN(CCC)S(=O)(=O)c1ccc(C(=O)N2CC(N3CCN(C(=O)c4nccs4)CC3)C2)cc1 [Cpd 658] | – | 9 | – | 351 | – | – | – | 0.402
30 | O=C(c1cscn1)N1CCN(C2CN(C(=O)c3sc4cc(F)c(C(F)(F)F)cc4c3Cl)C2)CC1 [Cpd 659] | – | 9 | – | 576 | – | – | 0.006 | –
31 | O=C(c1ccc(Oc2cccc(C(F)(F)F)c2)nc1)N1CC(N2CCN(C(=O)c3nccs3)CC2)C1 [Cpd 660] | – | 10 | – | 410 | – | 0.065 | – | –
32 | O=C(c1ccc2c(c1)CCN(c1ccccn1)C2)N1CC(N2CCN(C(=O)c3nccs3)CC2)C1 [Cpd 661] | 0.047 | 10 | – | 764 | – | – | – | –
33 | O=C(c1nccs1)N1CCN(C2CN(C(=O)c3sc4cc(Cl)ccc4c3C(F)(F)F)C2)CC1 [Cpd 664] | – | 11 | – | 498 | – | 0.006 | – | –
